Columns and labels:
HAdV5-GFP = assay: Plaque assay (inhibition of HAdV plaque formation); format: cell-based, HAdV-5; settings: for Selectivity index (SI): ratio of CC50 to IC50 in plaque assay; for inhibition at 10 µM: read-out: Plaque Assay (%) Inhibition (10 μM); for IC50: read-out: Plaque Assay IC50 (μM), HAdV5-GFP, low MOI, 293β5 cell line
Protocol: Plaque Assay. […] When cells reached 80-90% confluency, they were infected with HAdV5-GFP (0.06 vp/cell) and rocked for 2 h at 37° C. After the incubation the inoculum was removed, and the cells were washed once with PBS.
Plaque Assay. Compounds were tested using low MOI infections (0.06 vp/cell) and at concentrations of 10 μM and in a dose-response assay ranging from 10 to 0.3 μM in a plaque assay. […] When cells reached 80-90% confluency, they were infected with HAdV5-GFP (0.06 vp/cell) and rocked for 2 h at 37° C. After the incubation the inoculum was removed, and the cells were washed once with PBS. […] The mixture also contained the compounds in concentrations ranging from 10 to 0.3 μM.

A549 cells = assay: Cytotoxicity assay (AlamarBlue); settings: read-out: CC50 (μM), cytotoxic concentration 50%; A549 cell line, 48 h
Protocol: Cytotoxicity Assay. The cytotoxicity of the compounds was analyzed by commercial kit AlamarBlue® (Invitrogen, Ref. DAL1025). A549 cells at a density of 5×10^3 cells per well in 96-well plates were seeded. […] Cells were then incubated at 37° C. for 48 h following the kit protocol. The cytotoxic concentration 50 (CC50) value was obtained using the statistical package GraphPad Prism. This assay was performed in duplicate.

SMILES	Selectivity index (SI) (HAdV5-GFP)	inhibition at 10 µM (HAdV5-GFP) [%]	IC50 (HAdV5-GFP) [µM]	CC50 (A549 cells) [µM]
CCNc1ccc(NC(=O)c2cc(Cl)ccc2O)c(Cl)c1 [Compound 79, 5-Chloro-N-(2-chloro-4-(ethylamino)phenyl)-2-hydroxybenzamide]	13.9	100	2.18	30.2 ± 4.1
CCCNc1ccc(NC(=O)c2cc(Cl)ccc2O)c(Cl)c1 [Compound 80, 5-Chloro-N-(2-chloro-4-(propylamino)phenyl)-2-hydroxybenzamide]	4.5	100	5.04	22.5 ± 10.6
CC(C)Nc1ccc(NC(=O)c2cc(Cl)ccc2O)c(Cl)c1 [Compound 81, 5-Chloro-N-(2-chloro-4-(isopropylamino)phenyl)-2-hydroxybenzamide]	12.5	100	0.88	11 ± 1.4
CC(C)CNc1ccc(NC(=O)c2cc(Cl)ccc2O)c(Cl)c1 [Compound 82, 5-Chloro-N-(2-chloro-4-(isobutylamino)phenyl)-2-hydroxybenzamide]	67.4	100	0.89	60 ± 15
CCCCCCC(C)Nc1ccc(NC(=O)c2cc(Cl)ccc2O)c(Cl)c1 (centres unmarked) [Compound 83, 5-Chloro-N-(2-chloro-4-(octan-2-ylamino)phenyl)-2-hydroxybenzamide]	73.4	100	0.32	23.5 ± 3
CCCCCCCCC(C)Nc1ccc(NC(=O)c2cc(Cl)ccc2O)c(Cl)c1 (centres unmarked) [Compound 84, 5-Chloro-N-(2-chloro-4-(decan-2-ylamino)phenyl)-2-hydroxybenzamide]	18.1	100	1.21 ± 0.02	21.9 ± 8.9
O=C(Nc1ccc(NCC2CC2)cc1Cl)c1cc(Cl)ccc1O [Compound 85, 5-Chloro-N-(2-chloro-4-((cyclopropylmethyl)amino)phenyl)-2-hydroxybenzamide]	10.4	100	1.38	14.4
O=C(Nc1ccc(NCC2CCCC2)cc1Cl)c1cc(Cl)ccc1O [Compound 86, 5-Chloro-N-(2-chloro-4-((cyclopentylmethyl)amino)phenyl)-2-hydroxybenzamide]	17.3	100	1.24	21.5
O=C(Nc1ccc(NC2CCCCC2)cc1Cl)c1cc(Cl)ccc1O [Compound 88, 5-Chloro-N-(2-chloro-4-(cyclohexylamino)phenyl)-2-hydroxybenzamide]	51.1	99.5 ± 0.7	1.34	68.3
CN(C)c1ccc(NC(=O)c2cc(Cl)ccc2O)c(Cl)c1 [Compound 89, 5-Chloro-N-(2-chloro-4-(dimethylamino)phenyl)-2-hydroxybenzamide]	44.3	100	1.92 ± 0.23	85.1 ± 11.9
CCN(CC)c1ccc(NC(=O)c2cc(Cl)ccc2O)c(Cl)c1 [Compound 90, 5-Chloro-N-(2-chloro-4-(diethylamino)phenyl)-2-hydroxybenzamide]	64.5	100	0.86 ± 0.19	55.5 ± 10.2
CCCN(CCC)c1ccc(NC(=O)c2cc(Cl)ccc2O)c(Cl)c1 [Compound 91, 5-Chloro-N-(2-chloro-4-(dipropylamino)phenyl)-2-hydroxybenzamide]	16.0	100	0.67 ± 0.03	10.7 ± 2.1
O=C(Nc1ccc(N(CC2CC2)CC2CC2)cc1Cl)c1cc(Cl)ccc1O [Compound 92, N-(4-(Bis(cyclopropylmethyl)amino)-2-chlorophenyl)-5-chloro-2-hydroxybenzamide]	20.7	100	0.62 ± 0.01	12.8 ± 4.2
CC1(ON(c2ccc(NC(=O)c3cc(Cl)ccc3O)c(Cl)c2)C2(C)CCCC2)CCCC1 [Compound 93, 5-Chloro-N-(2-chloro-4-((1-methylcyclopentyl)((1-methylcyclopentyl)oxy)amino)phenyl)-2-hydroxybenzamide]	24.3	100	0.74	18
O=C(Nc1ccc(NCc2ccccc2)cc1Cl)c1cc(Cl)ccc1O [Compound 94, N-(4-(Benzylamino)-2-chlorophenyl)-5-chloro-2-hydroxybenzamide]	7.8	100	2.52 ± 0.01	19.7 ± 2.8
O=C(Nc1ccc(NCc2ccc(F)cc2)cc1Cl)c1cc(Cl)ccc1O [Compound 95, 5-Chloro-N-(2-chloro-4-((4-fluorobenzyl)amino)phenyl)-2-hydroxybenzamide]	16.0	100	3.4 ± 0.54	54.4 ± 12.3
O=C(Nc1ccc(NCc2ccc(Cl)cc2)cc1Cl)c1cc(Cl)ccc1O [Compound 96, 5-Chloro-N-(2-chloro-4-((4-chlorobenzyl)amino)phenyl)-2-hydroxybenzamide]	49.7	100	1.2 ± 0.01	59.7 ± 0.3
O=C(Nc1ccc(NCc2ccc(Br)cc2)cc1Cl)c1cc(Cl)ccc1O [Compound 97, N-(4-((4-Bromobenzyl)amino)-2-chlorophenyl)-5-chloro-2-hydroxybenzamide]	22.2	100	1.84 ± 0.1	40.9 ± 2.2
O=C(Nc1ccc(NCc2ccc(C(F)(F)F)cc2)cc1Cl)c1cc(Cl)ccc1O [Compound 98, 5-Chloro-N-(2-chloro-4-((4-(trifluoromethyl)benzyl)amino)phenyl)-2-hydroxybenzamide]	43.8	99.6 ± 0.6	1.43 ± 0.29	62.7 ± 6.1
O=C(Nc1ccc(NCc2cccc(C(F)(F)F)c2)cc1Cl)c1cc(Cl)ccc1O [Compound 99, 5-Chloro-N-(2-chloro-4-((3-(trifluoromethyl)benzyl)amino)phenyl)-2-hydroxybenzamide]	15.2	100	0.88 ± 0.4	13.3 ± 6.9
COc1ccc(CNc2ccc(NC(=O)c3cc(Cl)ccc3O)c(Cl)c2)cc1 [Compound 100, 5-Chloro-N-(2-chloro-4-((4-methoxybenzyl)amino)phenyl)-2-hydroxybenzamide]	22.4	100	3.61 ± 0.4	80.7 ± 8.2
CN(C)c1ccc(CNc2ccc(NC(=O)c3cc(Cl)ccc3O)c(Cl)c2)cc1 [Compound 102, 5-Chloro-N-(2-chloro-4-((4-(dimethylamino)benzyl)amino)phenyl)-2-hydroxybenzamide]	9.0	100	2.73 ± 0.26	24.5 ± 3.5
O=C(Nc1ccc(NCc2cc(F)cc(Cl)c2)cc1Cl)c1cc(Cl)ccc1O [Compound 103, 5-Chloro-N-(2-chloro-4-((3-chloro-5-fluorobenzyl)amino)phenyl)-2-hydroxybenzamide]	8.7	98.8 ± 0.6	1.28 ± 0.02	11.1 ± 0.7
O=C(Nc1ccc(NCc2cc(Cl)cc(Cl)c2)cc1Cl)c1cc(Cl)ccc1O [Compound 104, 5-Chloro-N-(2-chloro-4-((3,5-dichlorobenzyl)amino)phenyl)-2-hydroxybenzamide]	9.3	100	1.43 ± 0.17	13.3 ± 7.6
O=C(Nc1ccc(NCc2cc(Cl)cc(C(F)(F)F)c2)cc1Cl)c1cc(Cl)ccc1O [Compound 105, 5-Chloro-N-(2-chloro-4-((3-chloro-5-(trifluoromethyl)benzyl)amino)phenyl)-2-hydroxybenzamide]	17.3	99.3 ± 1	1.79 ± 0.16	30.9 ± 0.8
O=C(Nc1ccc(NCc2cc(F)cc(C(F)(F)F)c2)cc1Cl)c1cc(Cl)ccc1O [Compound 106, 5-Chloro-N-(2-chloro-4-((3-fluoro-5-(trifluoromethyl)benzyl)amino)phenyl)-2-hydroxybenzamide]	26.7	100	1.16 ± 0.13	30.9 ± 4.8
O=C(Nc1ccc(NCc2cc(C(F)(F)F)cc(C(F)(F)F)c2)cc1Cl)c1cc(Cl)ccc1O [Compound 107, N-(4-((3,5-Bis(trifluoromethyl)benzyl)amino)-2-chlorophenyl)-5-chloro-2-hydroxybenzamide]	82.9	100	1.12 ± 0.49	92.8
O=C(Nc1ccc(NCc2ccc(Br)s2)cc1Cl)c1cc(Cl)ccc1O [Compound 113, N-(4-(((5-Bromothiophen-2-yl)methyl)amino)-2-chlorophenyl)-5-chloro-2-hydroxybenzamide]	8.0	100	2.58	20.7 ± 4.6
O=C(Nc1ccc(NCc2ccc3cn[nH]c3c2)cc1Cl)c1cc(Cl)ccc1O [Compound 114, N-(4-(((1H-Indazol-6-yl)methyl)amino)-2-chlorophenyl)-5-chloro-2-hydroxybenzamide]	9.7	98 ± 0.7	4.65	45.3 ± 0.4
